{
  "source": "paper PMC11375437",
  "about": "“Selective labelling of GBA2 in cells with fluorescent β-D-arabinofuranosyl cyclitol aziridines” (Chemical Science, 2024)",
  "target": "T1, GBA2 (Homo sapiens, UniProt Q9HCG7)",
  "T1 sequence (Q9HCG7 1-927)": "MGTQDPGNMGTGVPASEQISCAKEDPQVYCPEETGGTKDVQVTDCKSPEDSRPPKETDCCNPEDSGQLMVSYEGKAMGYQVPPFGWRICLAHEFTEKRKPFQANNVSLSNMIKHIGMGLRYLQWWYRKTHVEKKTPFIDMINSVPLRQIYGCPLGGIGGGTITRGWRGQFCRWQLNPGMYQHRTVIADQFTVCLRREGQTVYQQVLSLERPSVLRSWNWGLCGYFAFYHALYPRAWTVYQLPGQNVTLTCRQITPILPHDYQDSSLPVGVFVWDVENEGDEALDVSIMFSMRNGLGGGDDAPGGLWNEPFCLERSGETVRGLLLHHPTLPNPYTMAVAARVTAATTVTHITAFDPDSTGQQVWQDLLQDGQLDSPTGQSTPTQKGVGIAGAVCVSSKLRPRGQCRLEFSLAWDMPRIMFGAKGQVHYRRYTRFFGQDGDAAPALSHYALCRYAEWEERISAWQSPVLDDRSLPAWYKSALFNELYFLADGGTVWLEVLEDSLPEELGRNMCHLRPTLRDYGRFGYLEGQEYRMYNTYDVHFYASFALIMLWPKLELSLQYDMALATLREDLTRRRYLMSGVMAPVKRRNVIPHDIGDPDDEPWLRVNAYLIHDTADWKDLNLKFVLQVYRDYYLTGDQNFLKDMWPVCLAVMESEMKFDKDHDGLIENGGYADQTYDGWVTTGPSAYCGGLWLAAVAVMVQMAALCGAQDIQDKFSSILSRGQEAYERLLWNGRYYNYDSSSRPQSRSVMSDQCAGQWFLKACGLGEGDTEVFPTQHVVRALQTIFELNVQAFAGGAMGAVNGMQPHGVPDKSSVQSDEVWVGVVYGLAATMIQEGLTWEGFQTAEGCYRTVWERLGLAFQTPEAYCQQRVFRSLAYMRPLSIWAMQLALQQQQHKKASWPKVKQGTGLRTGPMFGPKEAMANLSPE",
  "assay": "Labelling kinetics of ABP 4 on GBA2 by SDS-PAGE",
  "format": "biochemical",
  "design": "expressed in transfected cells; host or cells: HEK293T GBA1/GBA2 KO (CRISPR/Cas9), GBA2 overexpressed",
  "settings": "HEK293T GBA1/2 KO, GBA2 OE lysate; pH 5.8; 37 °C",
  "protocol": "To this end, lysates of HEK293T cells containing all β-glucosidases (endogenous GBA1 with overexpressed GBA2 and GBA3) were treated with ABPs 3, 4, 5 or 7, followed by protein separation by SDS-PAGE and fluorescence scanning of the wet gel slabs. […] In contrast, the β-D-Araf aziridine ABPs 3 and 4 selectively labelled GBA2 at a concentration of 100 nM, while Cy5 tagged ABP 5 did so at 500 nM. The GBA2 selectivity of β-D-Araf cyclitol aziridines 3, 4 and 5 was confirmed in a mixture of a lysate of overexpressed GBA2 cells spiked with 3 ng rhGBA1 (Fig. 2C and ESI Fig. S3 ^†). […] Therefore, only a combined inactivation rate constant (kinact) and binding constant (KI) ratio (kinact/KI) could be measured. […] Importantly, no labelling of GBA1 or GBA3 was detected under varying pH and time conditions (ESI Fig. S4-2 ^†).\nFigure S4-1. […] A) Percentage of GBA2 labelling by ABP 4 (left graphs), data was quantified from three independent sets of fluorescent gels under the depicted conditions. […]\nof inhibitors diluted in McIlvaine buffer (150 mM, pH 5.2) at 37 °C for 30 min or 3 h. […] After stopping the enzyme reaction with 200 μL 1 M NaOH-glycine (pH 10.3), 4-methylumbelliferone fluorescence was measured with a fluorimeter LS55 (Perkin Elmer, Waltham, MA, USA) with λEX 366 nm and λEM 445 nm. […]",
  "data": [
    {"smiles": "COc1ccc(C2=[N+]3C(=C(CCCCc4cn(CCCCCCCCN5[C@@H]6[C@H](CO)[C@@H](O)[C@H](O)[C@@H]65)nn4)c4ccc(-c5ccc(OC)cc5)n4[B-]3(F)F)C=C2)cc1", "note": "(stereo partly shown) [ABP 4]", "values": [
      {"measurement": "kinact/KI", "value": 19200, "unit": "M⁻¹ s⁻¹"}
    ]}
  ]
}
